PubChem BioAssay AID2060487 (Molecular Pharmacology Branch, DTP, NCI, 2025)
pIC50: −log10 of the molar value. Blank lines part the entries; values can stand above or below the compound they belong to.

System: 997537-175-T-J1-PDC complex spheroid viability
Assay: Anticancer human tumor 997537-175-T-J1-PDC patient-derived colon adenocarcinoma cell line growth inhibition [GQUAD]
Settings: for pIC50: curve of first compound; for viability, T/C: stronger effect = lower value
Outline: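 Multi-cell-type spheroids of tumor cells with HUVEC and mesenchymal stem cells, treated with drug combinations. Concentrations descend in half-log steps from near clinical Cmax, or from 10 microM where Cmax is unknown; viability read-out.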

[1] = second compound 0.0316 µM, first compound 0.0316 µM
[2] = second compound 0.0316 µM, first compound 0.1 µM
[3] = second compound 0.0316 µM, first compound 0.316 µM
[4] = second compound 0.0316 µM, first compound 1 µM
[5] = second compound 0.0316 µM, first compound 3.16 µM
[6] = second compound 0.0316 µM, first compound 10 µM
[7] = second compound 0.1 µM, first compound 0.0316 µM
[8] = second compound 0.1 µM, first compound 0.1 µM
[9] = second compound 0.1 µM, first compound 0.316 µM
[10] = second compound 0.1 µM, first compound 1 µM
[11] = second compound 0.1 µM, first compound 3.16 µM
[12] = second compound 0.1 µM, first compound 10 µM
[13] = second compound 0.316 µM, first compound 0.0316 µM
[14] = second compound 0.316 µM, first compound 0.1 µM
[15] = second compound 0.316 µM, first compound 0.316 µM
[16] = second compound 0.316 µM, first compound 1 µM
[17] = second compound 0.316 µM, first compound 3.16 µM
[18] = second compound 0.316 µM, first compound 10 µM
[19] = second compound 1 µM, first compound 0.0316 µM
[20] = second compound 1 µM, first compound 0.1 µM
[21] = second compound 1 µM, first compound 0.316 µM
[22] = second compound 1 µM, first compound 1 µM
[23] = second compound 1 µM, first compound 3.16 µM
[24] = second compound 1 µM, first compound 10 µM
[25] = second compound 3.16 µM, first compound 0.0316 µM
[26] = second compound 3.16 µM, first compound 0.1 µM
[27] = second compound 3.16 µM, first compound 0.316 µM
[28] = second compound 3.16 µM, first compound 1 µM
[29] = second compound 3.16 µM, first compound 3.16 µM
[30] = second compound 3.16 µM, first compound 10 µM
[31] = second compound 10 µM, first compound 0.0316 µM
[32] = second compound 10 µM, first compound 0.1 µM
[33] = second compound 10 µM, first compound 0.316 µM
[34] = second compound 10 µM, first compound 1 µM
[35] = second compound 10 µM, first compound 3.16 µM
[36] = second compound 10 µM, first compound 10 µM
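Note: spheroids exposed to the agents for 7 days.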
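Throughout, for viability, T/C: 100% = DMSO vehicle control viability.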

- pIC50 (second compound 0.0316 µM): 7.29
- pIC50 (second compound 0.1 µM): 7.02
- pIC50 (second compound 0.316 µM): 6.78
- pIC50 (second compound 1 µM): < 5.00
- pIC50 (second compound 3.16 µM): 5.28
- pIC50 (second compound 10 µM): < 5.00
SMILES: CC(=O)O[C@H]1C(=O)[C@@]2(C)[C@H]([C@H](OC(=O)c3ccccc3)[C@]3(O)C[C@H](OC(=O)[C@H](O)[C@@H](NC(=O)c4ccccc4)c4ccccc4)C(C)=C1C3(C)C)[C@]1(OC(C)=O)CO[C@@H]1C[C@@H]2O + Cc1cnc(CNC(=O)c2c(=O)c3ccc(N4CCCN(C)CC4)nc3n3c2sc2ccccc23)cn1
- viability, T/C [1]: 63.1%
- viability, T/C [2]: 32.2%
- viability, T/C [3]: 25.2%
- viability, T/C [4]: 32.1%
- viability, T/C [5]: 26.9%
- viability, T/C [6]: 21.2%
- viability, T/C [7]: 79.2%
- viability, T/C [8]: 48.2%
- viability, T/C [9]: 33.7%
- viability, T/C [10]: 18.4%
- viability, T/C [11]: 21.3%
- viability, T/C [12]: 32.4%
- viability, T/C [13]: 72.4%
- viability, T/C [14]: 56.4%
- viability, T/C [15]: 40.7%
- viability, T/C [16]: 47.4%
- viability, T/C [17]: 35%
- viability, T/C [18]: 43.5%
- viability, T/C [19]: 63%
- viability, T/C [20]: 72.2%
- viability, T/C [21]: 43.9%
- viability, T/C [22]: 60.5%
- viability, T/C [23]: 73.5%
- viability, T/C [24]: 47.7%
- viability, T/C [25]: 68.7%
- viability, T/C [26]: 72.8%
- viability, T/C [27]: 62.6%
- viability, T/C [28]: 66%
- viability, T/C [29]: 50.9%
- viability, T/C [30]: 45.2%
- viability, T/C [31]: 62.4%
- viability, T/C [32]: 49.4%
- viability, T/C [33]: 60%
- viability, T/C [34]: 69.7%
- viability, T/C [35]: 57%
- viability, T/C [36]: 60.2%

- pIC50 (second compound 0.0316 µM): < 5.00
- pIC50 (second compound 0.1 µM): < 5.00
- pIC50 (second compound 0.316 µM): < 5.00
- pIC50 (second compound 1 µM): < 5.00
- pIC50 (second compound 3.16 µM): < 5.00
- pIC50 (second compound 10 µM): < 5.00
SMILES: O=C(c1cc(Cc2n[nH]c(=O)c3ccccc23)ccc1F)N1CCN(C(=O)C2CC2)CC1 + Cc1cnc(CNC(=O)c2c(=O)c3ccc(N4CCCN(C)CC4)nc3n3c2sc2ccccc23)cn1
- viability, T/C [1]: 95.5%
- viability, T/C [2]: 87.9%
- viability, T/C [3]: 88.9%
- viability, T/C [4]: 85.1%
- viability, T/C [5]: 82.4%
- viability, T/C [6]: 102%
- viability, T/C [7]: 92.3%
- viability, T/C [8]: 92.5%
- viability, T/C [9]: 82.1%
- viability, T/C [10]: 72.5%
- viability, T/C [11]: 85.8%
- viability, T/C [12]: 68.9%
- viability, T/C [13]: 82%
- viability, T/C [14]: 96%
- viability, T/C [15]: 90.1%
- viability, T/C [16]: 99.8%
- viability, T/C [17]: 95.5%
- viability, T/C [18]: 93.8%
- viability, T/C [19]: 85.6%
- viability, T/C [20]: 106%
- viability, T/C [21]: 105%
- viability, T/C [22]: 89.5%
- viability, T/C [23]: 97%
- viability, T/C [24]: 108%
- viability, T/C [25]: 117%
- viability, T/C [26]: 108%
- viability, T/C [27]: 95.3%
- viability, T/C [28]: 84.4%
- viability, T/C [29]: 99%
- viability, T/C [30]: 89.5%
- viability, T/C [31]: 103%
- viability, T/C [32]: 95.2%
- viability, T/C [33]: 106%
- viability, T/C [34]: 116%
- viability, T/C [35]: 95.9%
- viability, T/C [36]: 101%

SMILES: Cn1ncnc1[C@H]1c2n[nH]c(=O)c3cc(F)cc(c23)N[C@@H]1c1ccc(F)cc1 + Cc1[nH]c2ccc(F)cc2c1-c1nc2c3cccnc3c3ncccc3c2[nH]1
- pIC50 (second compound 0.0316 µM): < 6.50
- pIC50 (second compound 0.1 µM): < 6.50
- pIC50 (second compound 0.316 µM): < 6.50
- pIC50 (second compound 1 µM): < 6.50
- pIC50 (second compound 3.16 µM): < 6.50
- pIC50 (second compound 10 µM): < 6.50
- viability, T/C (second compound 0.0316 µM, first compound 0.000999 µM): 101%
- viability, T/C (second compound 0.0316 µM, first compound 0.00316 µM): 99.5%
- viability, T/C (second compound 0.0316 µM, first compound 0.00999 µM): 104%
- viability, T/C [1]: 71%
- viability, T/C (second compound 0.0316 µM, first compound 0.0999 µM): 82.5%
- viability, T/C [3]: 83.1%
- viability, T/C (second compound 0.1 µM, first compound 0.000999 µM): 103%
- viability, T/C (second compound 0.1 µM, first compound 0.00316 µM): 102%
- viability, T/C (second compound 0.1 µM, first compound 0.00999 µM): 84.4%
- viability, T/C [7]: 65.1%
- viability, T/C (second compound 0.1 µM, first compound 0.0999 µM): 106%
- viability, T/C [9]: 96.2%
- viability, T/C (second compound 0.316 µM, first compound 0.000999 µM): 102%
- viability, T/C (second compound 0.316 µM, first compound 0.00316 µM): 103%
- viability, T/C (second compound 0.316 µM, first compound 0.00999 µM): 87.1%
- viability, T/C [13]: 75.8%
- viability, T/C (second compound 0.316 µM, first compound 0.0999 µM): 99.7%
- viability, T/C [15]: 93.1%
- viability, T/C (second compound 1 µM, first compound 0.000999 µM): 83.7%
- viability, T/C (second compound 1 µM, first compound 0.00316 µM): 74.6%
- viability, T/C (second compound 1 µM, first compound 0.00999 µM): 91.2%
- viability, T/C [19]: 81.3%
- viability, T/C (second compound 1 µM, first compound 0.0999 µM): 96.5%
- viability, T/C [21]: 87.8%
- viability, T/C (second compound 3.16 µM, first compound 0.000999 µM): 84.7%
- viability, T/C (second compound 3.16 µM, first compound 0.00316 µM): 73.2%
- viability, T/C (second compound 3.16 µM, first compound 0.00999 µM): 73.3%
- viability, T/C [25]: 70.6%
- viability, T/C (second compound 3.16 µM, first compound 0.0999 µM): 101%
- viability, T/C [27]: 84.2%
- viability, T/C (second compound 10 µM, first compound 0.000999 µM): 78%
- viability, T/C (second compound 10 µM, first compound 0.00316 µM): 61.3%
- viability, T/C (second compound 10 µM, first compound 0.00999 µM): 89.8%
- viability, T/C [31]: 62.9%
- viability, T/C (second compound 10 µM, first compound 0.0999 µM): 92.5%
- viability, T/C [33]: 95.3%
